Holding throughout (assay type): cell-based
Assay [1] relates to doxorubicin-resistant human colon adenocarcinoma subline (LoVo/DX). Description: cells. The following applies: for IC50: LoVo/DX, 72 h, read-out: IC50 LoVo/DX; for RI (resistance index): RI = IC50 LoVo/DX / IC50 LoVo; for SI LoVo/DX: SI = IC50 BALB/3T3 / IC50 LoVo/DX. From the text:
(§1) The BALB/3T3 cell line was purchased from the American Type Culture Collection (ATCC, Manassas, VA, USA), A549 and MCF-7 cell lines—from European Collection of Authenticated Cell Cultures (Salisbury, UK). The LoVo cell line was purchased from the American Type Culture Collection (ATCC, Manassas, VA, USA), and LoVo/DX by courtesy of Prof. E. Borowski (Technical University of Gdańsk, Gdańsk, Poland). All the cell lines are maintained in the Institute of Immunology and Experimental Therapy (IIET), Wroclaw, Poland. The human lung adenocarcinoma cell line was cultured in a mixture of OptiMEM and RPMI 1640 (1:1) medium (IIET, Wroclaw, Poland), supplemented with 5% foetal bovine serum (GE Healthcare, Logan UT, USA) and 2 mM L-glutamine (Sigma-Aldrich, Merck KGaA, Saint Louis, MO, USA). Human breast adenocarcinoma cell line was cultured in mixture of Eagle’s medium (IIET, Wroclaw, Poland), supplemented with 10% fetal bovine serum, 2 mM L-glutamine, 8 μg/mL insulin, and 1% amino-acids (Sigma-Aldrich, Merck KGaA, Saint Louis, MO, USA). […] Murine embryonic fibroblast cells were cultured in Dulbecco medium (Life Technologies Limited, Paisley, UK), supplemented with 10% foetal bovine serum (GE Healthcare, Logan, UT, USA) and 2 mM glutamine (Sigma-Aldrich, Merck KGaA, Saint Louis, MO, USA). All culture media contained antibiotics: 100 U/mL penicillin and 100 μg/mL streptomycin (Polfa–Tarchomin, Warsaw, Poland). All cell lines were cultured during the entire experiment in a humid atmosphere at 37 °C and 5% CO2. […] The procedure was repeated every year or in the case of less frequently used lines: after thawing.
(§2) Twenty-four h before adding the tested compounds, all cell lines were seeded in 96-well plates (Sarstedt, Nümbrecht, Germany) in appropriate media with 10^4 cells per well. All cell lines were exposed to each tested agent at four different concentrations in the range 100–0.01 μg/mL for 72 h. […] Additionally, all cell lines were exposed to DMSO (solvent used for tested compounds) (POCh, Gliwice, Poland) at concentrations corresponding to these present in tested agents’ dilutions. After 72 h sulforhodamine B assay (SRB) was performed.
(§3) After 72 h of incubation with the tested compounds, cells were fixed in situ by gently adding 50 μL per well of cold 50% trichloroacetic acid TCA (POCh, Gliwice, Poland) and were incubated at 4 °C for one hour. Following, wells were washed four times with water and air dried. Next, 50 μL of 0.1% solution of sulforhodamine B (Sigma-Aldrich, Merck KGaA, Saint Louis, MO, USA) in 1% acetic acid (POCh, Gliwice, Poland) were added to each well and plates were incubated at room temperature for 0.5 h. After incubation time, unbound dye was removed by washing plates four times with 1% acetic acid whereas stain bound to cells was solubilized with 10 mM Tris base (Sigma-Aldrich, Merck KGaA, Saint Louis, MO, USA). Absorbance of each solution was read at Synergy H4 Hybrid Multi-Mode Microplate Reader (BioTek Instruments, Inc., Winooski, VT, USA) at the 540 nm wavelength.
(§4) IC50 values were calculated in Cheburator 0.4, Dmitry Nevozhay software (version 1.2.0 software by Dmitry Nevozhay, 2004–2014, http://www.cheburator.nevozhay.com, freely available) for each experiment. Compounds at each concentration were tested in triplicates in single experiment and each experiment was repeated at least three times independently. The Resistance Index (RI) was defined as the ratio of IC50 for a given compound calculated for resistant cell line to that measured for its parental drug sensitive cell line (Table 1).

Assay [2] relates to human lung adenocarcinoma (A549). Description: cells. The following applies: for IC50: A549, 72 h, read-out: IC50 A549; for SI A549: SI = IC50 BALB/3T3 / IC50 A549.
Text: as §1, §2, §3, §4

Assay [3] has as its system normal murine embryonic fibroblast cell line (BALB/3T3). Description: Antiproliferative SRB assay, 72 h, normal cells BALB/3T3. The following applies: BALB/3T3, 72 h, mean ± SD.
Text: as §1, §2, §3, §4
(In general: Sulforhodamine B stains cellular protein and so reports cell mass.)

Assay [4] has as its system human breast adenocarcinoma (MCF-7). Description: cells. The following applies: for IC50: read-out: IC50 MCF-7; for SI MCF-7: SI = IC50 BALB/3T3 / IC50 MCF-7.
Text: as §1, §2, §3, §4

Assay [5] has as its system human colon adenocarcinoma cell line (LoVo). Description: cells. The following applies: for IC50: LoVo, 72 h, read-out: IC50 LoVo; for SI LoVo: SI = IC50 BALB/3T3 / IC50 LoVo.
Text: as §1, §2, §3, §4

Like-named read-outs stand apart in the source and are kept apart here.

On to `COc1cccc2c1C(=O)c1c(O)c3c(c(O)c1C2=O)C[C@@](O)(C(=O)CO)C[C@@H]3O[C@H]1C[C@H](N)[C@H](O)[C@H](C)O1` [Doxorubicin, reference compound], for which the IC50 in assay [1] (Homo sapiens, SRB, mean ± SD) was 4750 ± 990 nM; in assay [2] (Homo sapiens, SRB, mean ± SD) it was 258 ± 44 nM; in assay [3] (Mus musculus) it was 166 ± 74 nM.

Turning to `COc1c(Br)c2c(c(OC)c1OC)-c1ccc(SC)c(=O)cc1[C@@H](NC(=O)OCCOCCO)CC2` [Compound 12], the IC50 in assay [1] (Homo sapiens) was determined as 4240 ± 1330 nM; in assay [4] (Homo sapiens, MCF7, 72 h), 125 ± 15 nM; in assay [5] (Homo sapiens), 281 ± 185 nM; in assay [2] (Homo sapiens), 93 ± 14 nM; in assay [3] (Mus musculus) it was 135 ± 15 nM. Moreover, the “RI (resistance index)” value in assay [1] was 15.09. Besides, in assay [1], the “SI LoVo/DX” value is listed as 0.03. In addition, the “SI MCF-7” value in assay [4] was 1.08. Further, the “SI LoVo” value in assay [5] is reported as 0.48.

Turning to `CCOC(=O)N[C@H]1CCc2c(Br)c(OC)c(OC)c(OC)c2-c2ccc(SC)c(=O)cc21` [Compound 7], the IC50 in assay [1] (Homo sapiens) turned out to be 71 ± 10 nM; in assay [4] (Homo sapiens, MCF7, 72 h), 18 ± 2 nM; in assay [5] (Homo sapiens), 11 ± 4 nM; in assay [2] (Homo sapiens), 12 ± 4 nM; in assay [3] (Mus musculus) it was 102 ± 63 nM. For the same compound, the “RI (resistance index)” value in assay [1] was 6.45. For the same compound, the “SI LoVo/DX” value in assay [1] is listed as 1.44. In addition, in assay [4], the “SI MCF-7” value amounted to 5.67.

With `COC(=O)N[C@H]1CCc2c(Br)c(OC)c(OC)c(OC)c2-c2ccc(SC)c(=O)cc21` [Compound 6], the IC50 in assay [1] (Homo sapiens) is 50 ± 10 nM; in assay [5] (Homo sapiens), 7 ± 2 nM; in assay [2] (Homo sapiens), 10 ± 0.1 nM; in assay [3] (Mus musculus), 66 ± 31 nM.

On to `COc1c(Br)c2c(c(OC)c1OC)-c1ccc(OC)c(=O)cc1[C@@H](NC(C)=O)CC2` [Compound 2, 4-bromocolchicine], for which the IC50 was 1550 ± 170 nM in assay [1] (Homo sapiens); 27 ± 8 nM in assay [4] (Homo sapiens, MCF7, 72 h); 84 ± 21 nM in assay [5] (Homo sapiens); 105 ± 8 nM in assay [2] (Homo sapiens); 142 ± 73 nM in assay [3] (Mus musculus). Also, the “RI (resistance index)” value in assay [1] was determined as 18.45. In addition, the “SI LoVo/DX” value in assay [1] is reported as 0.09. In addition, in assay [4], the “SI MCF-7” value was found to be 5.26. For the same compound, in assay [5], the “SI LoVo” value is 1.69. Further, the “SI A549” value in assay [2] is reported as 1.35.

In the case of `CCCOC(=O)N[C@H]1CCc2c(Br)c(OC)c(OC)c(OC)c2-c2ccc(SC)c(=O)cc21` [Compound 9], the IC50 was determined as 72 ± 11 nM in assay [1] (Homo sapiens); 27 ± 7 nM in assay [4] (Homo sapiens, MCF7, 72 h); 11 ± 0.1 nM in assay [5] (Homo sapiens); 12 ± 4 nM in assay [2] (Homo sapiens); 116 ± 9 nM in assay [3] (Mus musculus). Besides, the “RI (resistance index)” value in assay [1] is 6.55. Moreover, the “SI LoVo/DX” value in assay [1] was determined as 1.61. Also, the “SI MCF-7” value in assay [4] is listed as 4.30.

Turning to `COc1c(Br)c2c(c(OC)c1OC)-c1ccc(SC)c(=O)cc1[C@@H](NC(=O)OCC(F)(F)F)CC2` [Compound 8], the IC50 in assay [1] (Homo sapiens) was 74 ± 7 nM; in assay [4] (Homo sapiens, MCF7, 72 h), 55 ± 26 nM; in assay [5] (Homo sapiens), 18 ± 10 nM; in assay [2] (Homo sapiens) it was 30 ± 21 nM; in assay [3] (Mus musculus) it was 138 ± 10 nM. Also, the “RI (resistance index)” value in assay [1] worked out at 4.11. Also, in assay [1], the “SI LoVo/DX” value amounted to 1.86. In addition, in assay [4], the “SI MCF-7” value came to 2.51.

In the case of `COc1c(Br)c2c(c(OC)c1OC)-c1ccc(SC)c(=O)cc1[C@@H](NC(=O)OCCO)CC2` [Compound 5], the IC50 is 1010 ± 20 nM in assay [1] (Homo sapiens); 57 ± 11 nM in assay [4] (Homo sapiens, MCF7, 72 h); 74 ± 19 nM in assay [5] (Homo sapiens); 74 ± 9 nM in assay [2] (Homo sapiens); 104 ± 43 nM in assay [3] (Mus musculus). For the same compound, the “RI (resistance index)” value in assay [1] was found to be 13.65. Moreover, in assay [1], the “SI LoVo/DX” value stood at 0.10. Further, the “SI MCF-7” value in assay [4] was 1.82. Moreover, the “SI LoVo” value in assay [5] turned out to be 1.41. Besides, in assay [2], the “SI A549” value was 1.41.

As for `N.N.[Cl][Pt][Cl]` [Cisplatin, reference compound], the IC50 turned out to be 5700 ± 630 nM in assay [1] (SRB, mean ± SD); 10700 ± 753 nM in assay [4] (MCF-7, 72 h, SRB, mean ± SD); 4370 ± 730 nM in assay [5] (SRB, mean ± SD); 6370 ± 1410 nM in assay [2] (SRB, mean ± SD); 3900 ± 1500 nM in assay [3]. Besides, the “RI (resistance index)” value in assay [1] was found to be 1.3. Also, in assay [1], the “SI LoVo/DX” value was found to be 0.68. Further, the “SI MCF-7” value in assay [4] was found to be 0.36. The “SI LoVo” value in assay [5] came to 0.89. Also, the “SI A549” value in assay [2] is given as 0.61.

With `CCCCOC(=O)N[C@H]1CCc2c(Br)c(OC)c(OC)c(OC)c2-c2ccc(SC)c(=O)cc21` [Compound 11], the IC50 in assay [1] (Homo sapiens) amounted to 91 ± 9 nM; in assay [4] (Homo sapiens, MCF7, 72 h), 125 ± 14 nM; in assay [5] (Homo sapiens), 62 ± 13 nM; in assay [2] (Homo sapiens) it was 95 ± 5 nM; in assay [3] (Mus musculus), 146 ± 14 nM. Besides, the “SI LoVo/DX” value in assay [1] came out at 1.60. Further, the “SI MCF-7” value in assay [4] is 1.17. Moreover, in assay [5], the “SI LoVo” value was 2.35. For the same compound, the “SI A549” value in assay [2] is listed as 1.54.

Turning to `COc1c(Br)c2c(c(OC)c1OC)-c1ccc(SC)c(=O)cc1[C@@H](NC(=O)OC(C)C)CC2` [Compound 10], the IC50 in assay [1] (Homo sapiens) stood at 89 ± 26 nM; in assay [4] (Homo sapiens, MCF7, 72 h) it was 132 ± 17 nM; in assay [5] (Homo sapiens), 54 ± 17 nM; in assay [2] (Homo sapiens), 89 ± 20 nM; in assay [3] (Mus musculus), 173 ± 108 nM. For the same compound, the “SI LoVo/DX” value in assay [1] amounted to 1.94. The “SI MCF-7” value in assay [4] is on record as 1.31. Besides, the “SI LoVo” value in assay [5] was 3.20. In addition, in assay [2], the “SI A549” value came to 1.94.

As for `COc1c(Br)c2c(c(OC)c1OC)-c1ccc(SC)c(=O)cc1[C@@H](N)CC2` [Compound 4, 4-bromo-N-deacetylthiocolchicine], the IC50 in assay [1] (Homo sapiens) was 700 ± 88 nM; in assay [4] (Homo sapiens, MCF7, 72 h), 178 ± 20 nM; in assay [5] (Homo sapiens), 125 ± 44 nM; in assay [2] (Homo sapiens), 115 ± 7 nM; in assay [3] (Mus musculus), 1260 ± 796 nM. Moreover, the “RI (resistance index)” value in assay [1] turned out to be 5.60. The “SI LoVo/DX” value in assay [1] is recorded as 1.80. In addition, the “SI MCF-7” value in assay [4] was 7.08. For the same compound, in assay [5], the “SI LoVo” value came to 10.08.

Turning to `COc1c(Br)c2c(c(OC)c1OC)-c1ccc(SC)c(=O)cc1[C@@H](NC(C)=O)CC2` [Compound 3, 4-bromothiocolchicine], the IC50 was 135 ± 12 nM in assay [1] (Homo sapiens); 15 ± 2 nM in assay [4] (Homo sapiens, MCF7, 72 h); 14 ± 4 nM in assay [5] (Homo sapiens); 10 ± 0.1 nM in assay [2] (Homo sapiens); 103 ± 89 nM in assay [3] (Mus musculus). In assay [1], the “RI (resistance index)” value is reported as 9.64. Further, the “SI LoVo/DX” value in assay [1] was determined as 0.76. Besides, the “SI MCF-7” value in assay [4] came to 6.87. Moreover, the “SI LoVo” value in assay [5] is on record as 7.36. The “SI A549” value in assay [2] is 10.3.

These data come from PMC6262455 (Cells, 2018).
